Source: patent US20120122919A1, “PHARMACEUTICAL COMPOSITION COMBINING TENATOPRAZOLE AND A HISTAMINE H2-RECEPTOR ANTAGONIST” (priority 2002, published 2012)

Experiment: phase I pharmacokinetic study of tenatoprazole, oral single dose and daily dose for 7 days
Format: in vivo, Caucasian individuals
Procedure: The doses tested were 10, 20, 40 and 80 mg of tenatoprazole.

**Q.** Which half-life at 7 days (human, plasma, after administration for seven days, depending on the dose (10-80 mg), read-out: mean elimination half-lives) does the source give for `COc1ccc2[nH]c([S+]([O-])Cc3ncc(C)c(OC)c3C)nc2n1` (stereo not drawn) [tenatoprazole, 5-methoxy-2-[[(4-methoxy-3,5-dimethyl-2-pyridyl)methyl]sulfinyl]imidazo[4,5-b]pyridine] here?
**A.** 5 to 9.2 h

**Q.** What about the T½ elimination half-life (repeated dose (7 days), 40 mg) of the same molecule?
**A.** 9 h

**Q.** And the T½ elimination half-life (single dose, 80 mg)?
**A.** 7 h
